Results reported in ChEMBL document CHEMBL3112558 (Bioorg Med Chem Lett, 2014).

What was measured:
Protease = Protease (Human immunodeficiency virus 1, UniProt Q9YQ12); test: Inhibition of HIV-1 protease
[1] = tested on: Human immunodeficiency virus 1; test: Antiviral activity against HIV1 by cell based assay; type: functional, organism-based
Cytochrome P450 1A2 = target: T1, Cytochrome P450 1A2 (Homo sapiens, UniProt P05177); test: Inhibition of human CYP1A2
T1 sequence (P05177 whole entry): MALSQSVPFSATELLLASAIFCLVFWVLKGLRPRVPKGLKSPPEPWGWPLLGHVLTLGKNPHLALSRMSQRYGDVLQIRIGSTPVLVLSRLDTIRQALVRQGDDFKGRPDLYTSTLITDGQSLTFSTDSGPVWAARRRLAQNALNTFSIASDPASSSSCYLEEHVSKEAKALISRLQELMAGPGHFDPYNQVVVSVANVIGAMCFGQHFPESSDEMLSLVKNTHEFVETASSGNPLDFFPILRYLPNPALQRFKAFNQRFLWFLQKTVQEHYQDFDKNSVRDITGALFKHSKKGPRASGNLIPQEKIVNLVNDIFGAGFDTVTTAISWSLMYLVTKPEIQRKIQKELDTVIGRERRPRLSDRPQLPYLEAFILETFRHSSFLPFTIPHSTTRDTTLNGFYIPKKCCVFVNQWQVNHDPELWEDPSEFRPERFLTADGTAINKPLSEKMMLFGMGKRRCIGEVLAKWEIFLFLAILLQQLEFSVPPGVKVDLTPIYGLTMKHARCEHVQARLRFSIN

Cytochrome P450 2D6 = Cytochrome P450 2D6 (Homo sapiens, UniProt P10635); test: Inhibition of human CYP2D6
Cytochrome P450 2D6, sequence (P10635 whole entry): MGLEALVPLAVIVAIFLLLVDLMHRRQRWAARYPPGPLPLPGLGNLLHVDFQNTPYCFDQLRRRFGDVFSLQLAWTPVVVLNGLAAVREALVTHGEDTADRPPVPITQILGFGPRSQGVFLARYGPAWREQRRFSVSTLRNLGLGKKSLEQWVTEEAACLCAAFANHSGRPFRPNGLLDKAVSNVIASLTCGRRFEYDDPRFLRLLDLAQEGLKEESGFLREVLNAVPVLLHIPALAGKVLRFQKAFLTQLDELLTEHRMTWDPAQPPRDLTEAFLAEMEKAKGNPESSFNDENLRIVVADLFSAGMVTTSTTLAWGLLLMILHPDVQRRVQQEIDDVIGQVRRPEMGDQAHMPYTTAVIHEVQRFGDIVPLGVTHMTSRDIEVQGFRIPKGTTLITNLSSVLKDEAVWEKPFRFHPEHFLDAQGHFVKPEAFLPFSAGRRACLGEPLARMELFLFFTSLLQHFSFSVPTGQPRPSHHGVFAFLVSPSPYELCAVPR

Cytochrome P450 2C9 = Cytochrome P450 2C9 (Homo sapiens, UniProt P11712); test: Inhibition of human CYP2C9
Cytochrome P450 2C9, sequence (P11712 whole entry): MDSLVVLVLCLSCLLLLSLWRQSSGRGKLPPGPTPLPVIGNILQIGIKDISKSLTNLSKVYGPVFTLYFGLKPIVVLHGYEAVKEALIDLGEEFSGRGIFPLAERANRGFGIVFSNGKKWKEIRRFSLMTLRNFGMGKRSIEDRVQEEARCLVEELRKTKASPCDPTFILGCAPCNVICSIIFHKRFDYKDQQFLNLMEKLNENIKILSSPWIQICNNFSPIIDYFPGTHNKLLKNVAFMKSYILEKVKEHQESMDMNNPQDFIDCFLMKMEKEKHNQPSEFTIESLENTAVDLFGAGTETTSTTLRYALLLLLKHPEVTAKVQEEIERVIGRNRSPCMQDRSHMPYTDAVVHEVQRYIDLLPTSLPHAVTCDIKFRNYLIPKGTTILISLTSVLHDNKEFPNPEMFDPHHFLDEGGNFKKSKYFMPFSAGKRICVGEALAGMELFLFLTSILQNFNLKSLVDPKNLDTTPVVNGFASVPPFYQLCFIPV

Cytochrome P450 2C19 = Cytochrome P450 2C19 (Homo sapiens, UniProt P33261); test: Inhibition of human CYP2C19
Cytochrome P450 2C19, sequence (P33261 whole entry): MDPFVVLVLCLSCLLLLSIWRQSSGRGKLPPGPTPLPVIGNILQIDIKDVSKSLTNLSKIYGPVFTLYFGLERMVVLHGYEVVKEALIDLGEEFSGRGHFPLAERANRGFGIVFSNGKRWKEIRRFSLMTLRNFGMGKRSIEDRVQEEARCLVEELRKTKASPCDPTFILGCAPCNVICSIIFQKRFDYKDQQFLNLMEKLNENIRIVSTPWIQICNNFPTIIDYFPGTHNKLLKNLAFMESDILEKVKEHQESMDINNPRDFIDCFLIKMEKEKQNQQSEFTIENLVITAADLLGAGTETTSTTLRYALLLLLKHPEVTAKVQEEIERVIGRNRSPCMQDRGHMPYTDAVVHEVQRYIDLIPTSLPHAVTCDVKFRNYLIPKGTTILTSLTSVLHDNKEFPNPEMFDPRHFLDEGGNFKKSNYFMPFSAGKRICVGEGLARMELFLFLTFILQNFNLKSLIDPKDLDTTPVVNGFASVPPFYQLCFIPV

Cytochrome P450 3A4 = Cytochrome P450 3A4 (Homo sapiens, UniProt P08684); test: Inhibition of human CYP3A4-mdiated midazolam 1'-hydroxylase activity
Cytochrome P450 3A4, sequence (P08684 whole entry): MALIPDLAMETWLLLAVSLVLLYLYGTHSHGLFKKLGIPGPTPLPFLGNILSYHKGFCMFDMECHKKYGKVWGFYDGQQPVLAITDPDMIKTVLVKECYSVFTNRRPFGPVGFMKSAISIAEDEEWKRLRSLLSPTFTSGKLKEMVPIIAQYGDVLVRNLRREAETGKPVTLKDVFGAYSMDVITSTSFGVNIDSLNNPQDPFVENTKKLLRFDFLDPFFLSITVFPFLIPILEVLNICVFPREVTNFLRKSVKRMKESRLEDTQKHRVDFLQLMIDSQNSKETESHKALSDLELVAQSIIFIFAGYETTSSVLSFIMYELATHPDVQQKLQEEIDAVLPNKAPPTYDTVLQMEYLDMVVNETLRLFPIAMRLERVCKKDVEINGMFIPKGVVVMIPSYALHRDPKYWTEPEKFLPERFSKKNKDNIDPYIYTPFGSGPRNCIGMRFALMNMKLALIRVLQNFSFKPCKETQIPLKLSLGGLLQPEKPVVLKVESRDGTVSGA

CYP3A4 = CYP3A4 (Homo sapiens, UniProt P08684); test: Ratio of compound IC50 to ritonavir IC50 for human CYP3A4-mdiated midazolam 1'-hydroxylase activity; type: ADME; settings: probe midazolam, read-out: Ratio IC50
CYP3A4, sequence (P08684 whole entry): as above

Protease, sequence (Q9YQ12 whole entry): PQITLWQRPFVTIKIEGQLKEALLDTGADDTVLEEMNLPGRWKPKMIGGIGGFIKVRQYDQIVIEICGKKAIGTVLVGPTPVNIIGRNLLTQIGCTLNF

## CC(C)c1nc(CN(C)C(=O)N[C@@H](Cc2cnc[nH]2)C(=O)N[C@@H](CC[C@@H](Cc2ccccc2)NC(=O)OCc2cncs2)Cc2ccccc2)cs1
Protease
  IC50: > 30 µM
[1]
  EC50: > 30 µM
Cytochrome P450 1A2
  IC50: 15 µM
Cytochrome P450 2D6
  IC50: 0.4 µM
Cytochrome P450 2C9
  IC50: 4.7 µM
Cytochrome P450 2C19
  IC50: 2.2 µM

## CC(=O)NCC[C@H](NC(=O)N(C)Cc1csc(C(C)C)n1)C(=O)N[C@H](CC[C@H](Cc1ccccc1)NC(=O)OCc1cncs1)Cc1ccccc1
Protease
  IC50: 2 µM
[1]
  EC50: 18 µM

## CC(C)c1nc(CN(C)C(=O)N[C@@H](CCO)C(=O)N[C@H](CC[C@H](Cc2ccccc2)NC(=O)OCc2cncs2)Cc2ccccc2)cs1
Protease
  IC50: 0.039 µM
[1]
  EC50: 2.7 µM

## CC(C)[C@H](NC(=O)N(C)Cc1cscn1)C(=O)N[C@@H](CC[C@@H](Cc1ccccc1)NC(=O)OCc1cncs1)Cc1ccccc1
Protease
  IC50: > 30 µM
[1]
  EC50: > 30 µM
Cytochrome P450 3A4
  IC50: 0.12 µM

## CC(C)c1nc(CN(C(=O)N[C@@H](CO)C(=O)N[C@H](CC[C@H](Cc2ccccc2)NC(=O)OCc2cncs2)Cc2ccccc2)C2CC2)cs1
Protease
  IC50: 1.41 µM
[1]
  EC50: 2.5 µM

## CC(C)c1nc(CN(C)C(=O)N[C@@H](Cn2cccn2)C(=O)N[C@H](CC[C@H](Cc2ccccc2)NC(=O)OCc2cncs2)Cc2ccccc2)cs1
Protease
  IC50: 0.03 µM
[1]
  EC50: 5 µM

## CC(C)c1nc(CN(C)C(=O)N[C@@H](CC(N)=O)C(=O)N[C@H](CC[C@H](Cc2ccccc2)NC(=O)OCc2cncs2)Cc2ccccc2)cs1
Protease
  IC50: 0.143 µM
[1]
  EC50: 1 µM

## CC(C)c1nc(CN(C)C(=O)N[C@@H](CCN)C(=O)N[C@H](CC[C@H](Cc2ccccc2)NC(=O)OCc2cncs2)Cc2ccccc2)cs1
Protease
  IC50: > 30 µM
[1]
  EC50: > 30 µM
Cytochrome P450 1A2
  IC50: > 25 µM
Cytochrome P450 2D6
  IC50: 0.8 µM
Cytochrome P450 2C9
  IC50: > 25 µM
Cytochrome P450 2C19
  IC50: > 25 µM

## CC(C)c1nc(CN(C)C(=O)N[C@@H](CCCCN)C(=O)N[C@H](CC[C@H](Cc2ccccc2)NC(=O)OCc2cncs2)Cc2ccccc2)cs1
Protease
  IC50: > 30 µM
[1]
  EC50: > 30 µM

## CN(Cc1cncs1)C(=O)N[C@@H](CO)C(=O)N[C@H](CC[C@H](Cc1ccccc1)NC(=O)OCc1cncs1)Cc1ccccc1
Protease
  IC50: 4.3 µM
[1]
  EC50: 12 µM

## CC(C)c1nc(CN(C)C(=O)NC(CN(C)C)C(=O)N[C@H](CC[C@H](Cc2ccccc2)NC(=O)OCc2cncs2)Cc2ccccc2)cs1 (some centres not stated)
[1]
  EC50: 3 µM

## CC(C)c1nc(CN(C)C(=O)N[C@H](C(=O)N[C@@H](Cc2ccccc2)C[C@H](O)[C@H](Cc2ccccc2)NC(=O)OCc2cncs2)C(C)C)cs1 [RITONAVIR]
[1]
  EC50: 0.05 µM

## COC[C@H](NC(=O)N(C)Cc1csc(C(C)C)n1)C(=O)N[C@H](CC[C@H](Cc1ccccc1)NC(=O)OCc1cncs1)Cc1ccccc1
[1]
  EC50: 0.65 µM

## CC(C)c1nc(CN(C)C(=O)N[C@H](CCN2CCOCC2)C(=O)N[C@H](CC[C@H](Cc2ccccc2)NC(=O)OCc2cncs2)Cc2ccccc2)cs1
Protease
  IC50: > 30 µM
[1]
  EC50: > 30 µM
Cytochrome P450 1A2
  IC50: > 25 µM
Cytochrome P450 2D6
  IC50: 3.1 µM
Cytochrome P450 2C19
  IC50: 1.3 µM

## CC(C)c1nc(CN(C)C(=O)N[C@@H](COCc2ccccc2)C(=O)N[C@H](CC[C@H](Cc2ccccc2)NC(=O)OCc2cncs2)Cc2ccccc2)cs1
Protease
  IC50: 11.8 µM
[1]
  EC50: > 30 µM

## CC(C)c1nc(CN(C)C(=O)N[C@@H](CCN(C)C)C(=O)N[C@H](CC[C@H](Cc2ccccc2)NC(=O)OCc2cncs2)Cc2ccccc2)cs1
Protease
  IC50: > 30 µM
[1]
  EC50: 20 µM

## CC(C)[C@H](NC(=O)N(C)Cc1cncs1)C(=O)N[C@H](CC[C@H](Cc1ccccc1)NC(=O)OCc1cncs1)Cc1ccccc1
Protease
  IC50: 0.386 µM
[1]
  EC50: 0.7 µM
Cytochrome P450 3A4
  IC50: 0.08 µM

## CC(=O)NCC[C@H](NC(=O)N(C)Cc1csc(C(C)C)n1)C(=O)N[C@@H](CC[C@@H](Cc1ccccc1)NC(=O)OCc1cncs1)Cc1ccccc1
Protease
  IC50: > 30 µM
[1]
  EC50: > 30 µM
Cytochrome P450 1A2
  IC50: > 25 µM
Cytochrome P450 2D6
  IC50: 0.8 µM
Cytochrome P450 2C9
  IC50: 15.5 µM
Cytochrome P450 2C19
  IC50: > 25 µM

## CC(C)c1nc(CN(C)C(=O)N[C@@H](CC(=O)O)C(=O)N[C@H](CC[C@H](Cc2ccccc2)NC(=O)OCc2cncs2)Cc2ccccc2)cs1
Protease
  IC50: 0.01 µM
[1]
  EC50: 10 µM

## Cc1nc(CN(C)C(=O)N[C@H](C(=O)N[C@H](CC[C@H](Cc2ccccc2)NC(=O)OCc2cncs2)Cc2ccccc2)C(C)C)cs1
Protease
  IC50: 0.035 µM
[1]
  EC50: 0.4 µM

## CC(C)c1nc(CN(C)C(=O)N[C@@H](CCNS(C)(=O)=O)C(=O)N[C@H](CC[C@H](Cc2ccccc2)NC(=O)OCc2cncs2)Cc2ccccc2)cs1
Protease
  IC50: 8 µM
[1]
  EC50: > 30 µM

## CC(C)c1nc(CN(C(=O)N[C@H](C(=O)N[C@H](CC[C@H](Cc2ccccc2)NC(=O)OCc2cncs2)Cc2ccccc2)C(C)C)C2CC2)cs1
Protease
  IC50: 0.55 µM
[1]
  EC50: 0.75 µM
Cytochrome P450 3A4
  IC50: 0.21 µM

## CC(C)[C@H](NC(=O)N(C)Cc1cscn1)C(=O)N[C@H](CC[C@H](Cc1ccccc1)NC(=O)OCc1cncs1)Cc1ccccc1
Protease
  IC50: 0.242 µM
[1]
  EC50: 0.8 µM
Cytochrome P450 3A4
  IC50: 0.14 µM

## CC(C)c1nc(CN(C)C(=O)N[C@@H](CO)C(=O)N[C@@H](CC[C@@H](Cc2ccccc2)NC(=O)OCc2cncs2)Cc2ccccc2)cs1
Protease
  IC50: > 30 µM
[1]
  EC50: > 30 µM

## O=C(N[C@H](CC[C@H](Cc1ccccc1)NC(=O)[C@H](CO)NC(=O)N(Cc1cncs1)C1CC1)Cc1ccccc1)OCc1cncs1
Protease
  IC50: 19.3 µM
[1]
  EC50: 20 µM

## CC(C)[C@H](NC(=O)N(Cc1cscn1)C1CC1)C(=O)N[C@H](CC[C@H](Cc1ccccc1)NC(=O)OCc1cncs1)Cc1ccccc1
Protease
  IC50: 3.59 µM
CYP3A4
  selectivity ratio: 80
[1]
  EC50: 4 µM
Cytochrome P450 3A4
  IC50: < 0.1 µM

## CC(C)c1nc(CN(C)C(=O)N[C@@H](Cc2cn(C)cn2)C(=O)N[C@H](CC[C@H](Cc2ccccc2)NC(=O)OCc2cncs2)Cc2ccccc2)cs1
Protease
  IC50: > 30 µM
[1]
  EC50: > 30 µM

## CC(C)c1nc(CN(C)C(=O)N[C@@H](Cc2c[nH]cn2)C(=O)N[C@H](CC[C@H](Cc2ccccc2)NC(=O)OCc2cncs2)Cc2ccccc2)cs1
Protease
  IC50: 3 µM
[1]
  EC50: > 10 µM

## O=C(N[C@@H](CC[C@@H](Cc1ccccc1)NC(=O)[C@H](CO)NC(=O)N(Cc1cncs1)C1CC1)Cc1ccccc1)OCc1cncs1
Protease
  IC50: > 30 µM
[1]
  EC50: > 30 µM

## CN(Cc1cncs1)C(=O)NCCC(=O)N[C@H](CC[C@H](Cc1ccccc1)NC(=O)OCc1cncs1)Cc1ccccc1
[1]
  EC50: 2.5 µM
Cytochrome P450 3A4
  IC50: 0.13 µM

## CNCC[C@H](NC(=O)N(C)Cc1csc(C(C)C)n1)C(=O)N[C@H](CC[C@H](Cc1ccccc1)NC(=O)OCc1cncs1)Cc1ccccc1
Protease
  IC50: > 30 µM
[1]
  EC50: > 30 µM

## CC(C)c1nc(CN(C)C(=O)N[C@@H](CO)C(=O)N[C@H](CC[C@H](Cc2ccccc2)NC(=O)OCc2cncs2)Cc2ccccc2)cs1
Protease
  IC50: 0.05 µM
[1]
  EC50: 1.5 µM

## CC(C)c1nc(CN(C)C(=O)N[C@@H](CCN2CCOCC2)C(=O)N[C@H](CC[C@H](Cc2ccccc2)NC(=O)OCc2cncs2)Cc2ccccc2)cs1 [COBICISTAT]
Protease
  IC50: > 30 µM
[1]
  EC50: > 30 µM
Cytochrome P450 1A2
  IC50: > 25 µM
Cytochrome P450 2D6
  IC50: 9.2 µM
Cytochrome P450 2C19
  IC50: > 25 µM
